pEC50, pIC50: −log10 of the molar value.

Assay [1] concerns IL-1β production in PMA-differentiated THP-1 cells. The experiment in a line: Measurement of IL-1β production in PMA-differentiated THP-1 cells (ELISA, 4 hours). Format: cell-based, human. The settings on record: Homo sapiens, THP-1, human IL-1β production, assayed using one or more of the described procedures, read-out: NLRP3 hIL1B IC50. Put shortly:
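THP-1 cells differentiated with PMA (10 μg/ml, 24 h), replated at 1×10^6 cells/ml in RPMI with 2% FBS and exposed to compounds (e.g. 0.1–100 μM, 1% DMSO final) for 4 hours. IL-1β in cell-free supernatant quantified by ELISA against vehicle control.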
In general terms: In an ELISA, binding on a coated surface is turned into a signal by an enzyme label.

In a further assay the target is T1, human TLR7 (Homo sapiens, UniProt Q9NYK1).
T1 construct: host or cells: human HEK-Blue cells (HEK293-derived) co-expressing TLR7 and an NF-kB/AP1-inducible SEAP reporter
T1 sequence (Q9NYK1 27-1049): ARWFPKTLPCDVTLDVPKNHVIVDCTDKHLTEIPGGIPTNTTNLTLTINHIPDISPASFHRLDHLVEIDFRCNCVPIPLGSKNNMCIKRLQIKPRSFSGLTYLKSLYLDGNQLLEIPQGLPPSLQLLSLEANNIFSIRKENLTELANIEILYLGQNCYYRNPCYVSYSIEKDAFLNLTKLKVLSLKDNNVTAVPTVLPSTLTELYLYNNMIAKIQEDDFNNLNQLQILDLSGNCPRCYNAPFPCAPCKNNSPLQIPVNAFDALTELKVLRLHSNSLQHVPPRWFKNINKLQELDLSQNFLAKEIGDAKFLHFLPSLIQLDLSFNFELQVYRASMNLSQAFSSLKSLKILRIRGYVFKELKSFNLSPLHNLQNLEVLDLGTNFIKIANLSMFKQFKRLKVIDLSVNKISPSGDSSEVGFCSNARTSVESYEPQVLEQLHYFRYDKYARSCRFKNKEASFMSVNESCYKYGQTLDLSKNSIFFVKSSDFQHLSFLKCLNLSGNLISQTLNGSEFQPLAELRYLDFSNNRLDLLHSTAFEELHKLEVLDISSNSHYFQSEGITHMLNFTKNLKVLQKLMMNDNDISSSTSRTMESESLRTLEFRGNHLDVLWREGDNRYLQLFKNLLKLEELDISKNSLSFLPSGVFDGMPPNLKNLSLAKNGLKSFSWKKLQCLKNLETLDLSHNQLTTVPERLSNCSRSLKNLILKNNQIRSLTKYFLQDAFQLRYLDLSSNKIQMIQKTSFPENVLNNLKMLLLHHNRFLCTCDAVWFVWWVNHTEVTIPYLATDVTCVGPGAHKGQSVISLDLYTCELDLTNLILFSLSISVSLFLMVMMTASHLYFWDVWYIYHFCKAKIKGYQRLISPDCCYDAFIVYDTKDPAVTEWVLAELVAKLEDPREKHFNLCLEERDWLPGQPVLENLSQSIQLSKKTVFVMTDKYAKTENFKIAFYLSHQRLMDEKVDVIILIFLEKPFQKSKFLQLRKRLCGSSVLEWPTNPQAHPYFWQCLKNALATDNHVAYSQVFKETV
The experiment in a line: In vitro human TLR7 binding reporter assay (HEK-Blue, NF-kB/AP1-inducible SEAP). The settings on record: HEK-Blue human TLR7 SEAP reporter cells; activity range classes; read-out: TLR7 Agonist EC50. Format: cell-based. The procedure, abridged:
(§1)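 Cells are seeded and grown for 24 h. Compounds or DMSO are then added and incubated 18 h at 37 °C. Quanti-Blue is added, and SEAP is read after thirty minutes. EC50 values are normalized, with RLU from 50 μM reference standard setting 100% Ymax.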
For orientation: Reporter assays use an easily measured gene product as a stand-in for the process of interest.

The next assay has as its target T2, human TLR8 (Homo sapiens, UniProt Q9NR97).
T2 construct: host or cells: human HEK-Blue cells (HEK293-derived) co-expressing TLR8 and an NF-kB/AP1-inducible SEAP reporter
T2 sequence (Q9NR97 27-1041): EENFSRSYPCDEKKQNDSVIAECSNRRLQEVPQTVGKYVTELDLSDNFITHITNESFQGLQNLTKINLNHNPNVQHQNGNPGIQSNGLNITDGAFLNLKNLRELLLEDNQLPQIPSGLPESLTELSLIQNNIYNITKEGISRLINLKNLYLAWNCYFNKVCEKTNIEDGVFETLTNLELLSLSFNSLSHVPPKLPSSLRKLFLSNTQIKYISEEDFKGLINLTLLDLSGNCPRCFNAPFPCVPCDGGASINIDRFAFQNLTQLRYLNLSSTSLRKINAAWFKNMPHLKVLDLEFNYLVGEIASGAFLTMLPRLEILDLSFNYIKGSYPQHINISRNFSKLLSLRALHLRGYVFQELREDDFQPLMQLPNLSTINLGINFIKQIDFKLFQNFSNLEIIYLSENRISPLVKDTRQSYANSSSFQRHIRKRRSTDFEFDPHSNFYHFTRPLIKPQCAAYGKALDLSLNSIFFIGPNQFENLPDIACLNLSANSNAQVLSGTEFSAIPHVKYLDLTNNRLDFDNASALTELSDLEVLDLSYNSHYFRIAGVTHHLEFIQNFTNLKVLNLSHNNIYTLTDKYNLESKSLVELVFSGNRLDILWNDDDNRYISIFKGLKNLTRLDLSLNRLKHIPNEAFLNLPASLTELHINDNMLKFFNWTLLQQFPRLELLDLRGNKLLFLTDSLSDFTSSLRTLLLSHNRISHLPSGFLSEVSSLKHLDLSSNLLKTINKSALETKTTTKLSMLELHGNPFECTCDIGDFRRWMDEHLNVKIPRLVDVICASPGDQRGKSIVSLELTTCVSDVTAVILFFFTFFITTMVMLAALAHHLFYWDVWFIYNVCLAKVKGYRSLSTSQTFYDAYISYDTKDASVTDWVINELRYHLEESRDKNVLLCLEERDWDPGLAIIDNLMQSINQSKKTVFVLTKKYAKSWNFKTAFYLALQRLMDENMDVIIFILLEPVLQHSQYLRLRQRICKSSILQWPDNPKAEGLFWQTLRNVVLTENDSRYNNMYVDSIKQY
Description: In vitro human TLR8 binding reporter assay (HEK-Blue, NF-kB/AP1-inducible SEAP). Type of assay: cell-based. The settings on record: HEK-Blue human TLR8 SEAP reporter cells; activity range classes; read-out: TLR8 Agonist EC50. Put shortly: as §1

As a reminder, the pIC50 is −log10 of the IC50, conventionally taken in molar units. What is called pEC50 is −log10 of the EC50, conventionally taken in molar units. `Nc1nc2cc(-c3ccn[nH]3)ccc2cc1CCCN1CCCCC1` [Compound 114]: the pIC50 in assay [1] is 5.37. The pEC50 at human TLR7 and on human TLR8 was < 4.00 each time.

Take `Nc1cc(NCCO)c2ccc(-n3cccn3)cc2n1` [Compound 296]: the pIC50 in assay [1] was 6.25. Moreover, the pEC50 on human TLR7 and at human TLR8 was < 4.00 in each case.

On to `Nc1cc(NCc2cnc[nH]2)c2ccc(-n3cccn3)cc2n1` [Compound 307], for which, in assay [1], the negative-log IC50 (pIC50) was 6.96. The pEC50 at human TLR7 and on human TLR8 was < 4.00 in each case.

Take `CC(=O)NCCNc1cc(N)nc2cc(-n3cccn3)ccc12` [Compound 306]: the pIC50 in assay [1] was 5.96. Also, the negative logarithm of the EC50 (pEC50) on human TLR7 and at human TLR8 was < 4.00 each time.

Turning to `Nc1cc(NCc2c[nH]nn2)c2ccc(-c3ccn[nH]3)cc2n1` [Compound 226], the pIC50 in assay [1] is 6.14. The pEC50 on human TLR7 and at human TLR8 was < 4.00 in each case.

In the case of `Nc1cc(NC2CCCOC2)c2ccc(-c3ccn[nH]3)cc2n1` (stereo not drawn) [Compound 279], the pIC50 in assay [1] was 6.48. The pEC50 at human TLR7 and on human TLR8 was < 4.00 throughout.

On to `CS(=O)(=O)CCNc1cc(N)nc2cc(-c3ccn[nH]3)ccc12` [Compound 140], for which the pIC50 in assay [1] is 5.85. Moreover, the pEC50 on human TLR7 and on human TLR8 was < 4.00 throughout.

Turning to `Nc1cc(NCc2cccnn2)c2ccc(-c3ccn[nH]3)cc2n1` [Compound 149], in assay [1], the negative-log IC50 (pIC50) is 6.85. Further, the pEC50 on human TLR7 and on human TLR8 was < 4.00 in each case.

For `CN(Cc1cccnc1)c1cc(N)nc2cc(-c3ccn[nH]3)ccc12` [Compound 264], the negative-log IC50 (pIC50) in assay [1] is 5.54. Besides, the pEC50 on human TLR7 and on human TLR8 was < 4.00 throughout.

For `CC(CO)(CO)COc1cc(N)nc2cc(-c3ccn[nH]3)ccc12` [Compound 194], the pIC50 in assay [1] was 5.65. Moreover, the pEC50 at human TLR7 and on human TLR8 was < 4.00 each time.

In the case of `Cc1nc(C(=O)NCCCNc2cc(N)nc3cc(-c4ccn[nH]4)ccc23)c(C)s1` [Compound 210], in assay [1], the negative logarithm of the IC50 (pIC50) is 4.68. In addition, the pEC50 on human TLR7 and on human TLR8 was < 4.00 throughout.

With `CS(=O)(=O)Nc1ccc(CNc2cc(N)nc3cc(-c4ccn[nH]4)ccc23)cc1` [Compound 258], in assay [1], the negative logarithm of the IC50 (pIC50) was 5.74. In addition, the pEC50 at human TLR7 and on human TLR8 was < 4.00 throughout.

`Nc1cc(OCc2cccnc2)c2ccc(-c3ccn[nH]3)cc2n1` [Compound 190]: the negative-log IC50 (pIC50) in assay [1] was 6.18. The pEC50 on human TLR7 and on human TLR8 was < 4.00 in each case.

For the compound `Nc1nc2cc(-c3cc[nH]n3)ccc2cc1CCCO` [Compound 103, 3-[2-amino-7-(1H-pyrazol-3-yl)quinolin-3-yl]propan-1-ol], in assay [1], the pIC50 was 5.80. Further, the pEC50 on human TLR7 and at human TLR8 was < 4.00 in each case.

For `Nc1cc(NCC2CNC2)c2ccc(-c3ccn[nH]3)cc2n1` [Compound 325], in assay [1], the pIC50 was 4.64. Moreover, the pEC50 on human TLR7 and on human TLR8 was < 4.00 each time.

For the compound `Nc1cc(NCCn2cncn2)c2ccc(-c3ccn[nH]3)cc2n1` [Compound 163], in assay [1], the pIC50 is 6.80. Besides, the pEC50 at human TLR7 and on human TLR8 was < 4.00 in each case.

As to `Nc1cc(NCCC2CCOCC2)c2ccc(-c3ccsc3)cc2n1` [Compound 345, N4-(2-(tetrahydro-2H-pyran-4-yl)ethyl)-7-(thiophen-3-yl)quinoline-2,4-diamine], the pIC50 in assay [1] was 5.75. Further, the negative-log EC50 (pEC50) at human TLR7 and at human TLR8 was < 4.00 throughout.

On to `CC(C)(CNc1cc(N)nc2cc(-c3ccn[nH]3)ccc12)S(C)(=O)=O` [Compound 223], for which the pIC50 in assay [1] was 5.87. In addition, the negative-log EC50 (pEC50) on human TLR7 and on human TLR8 was < 4.00 throughout.

Turning to `Nc1cc(NCc2cccnn2)c2ccc(-n3cccn3)cc2n1` [Compound 309], the negative logarithm of the IC50 (pIC50) in assay [1] is 6.38. Besides, the pEC50 at human TLR7 and at human TLR8 was < 4.00 each time.

The values are drawn from patent US12171756B2, “NLRP3 modulators” (Innate Tumor Immunity, Inc., priority 2017, dated 2024).
